Reference: patent US11051515B2, “3-acyl-benzamides and their use as herbicides” (Bayer Aktiengesellschaft, priority 2017, dated 2021)

What was measured:
AVEFA [1] = assay: Pre-emergence action against AVEFA; format: in vivo, Avena fatua; details: dosage 320 g/ha, scored visually after 3 weeks vs untreated controls
Outline: (§1)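 Seeds sown in sandy loam in wood-fiber pots and covered with soil. Greenhouse growth; visual damage scored after 3 weeks versus untreated controls (100% = dead, 0% = like control).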

MATIN [2] = assay: Post-emergence action against MATIN; format: in vivo, Matricaria inodora; details: post-emergence, dosage 80 g/ha, visual assessment about 3 weeks after treatment vs untreated controls
Outline: (§2)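 Weeds grown in sandy loam in greenhouse, treated at one-leaf stage (2–3 weeks after sowing) with WP or EC formulations sprayed as aqueous suspension/emulsion at 600 to […] water with 0.2% wetting agent. Visual rating after about 3 weeks versus untreated controls, as % herbicidal action (100% = plants dead, 0% = like control).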

ECHCG [3] = assay: Post-emergence action against ECHCG; format: in vivo, Echinochloa crus-galli; details: post-emergence, dosage 80 g/ha, visual assessment about 3 weeks after treatment vs untreated controls
Outline: as §2

SETVI [4] = assay: Pre-emergence action against SETVI; format: in vivo, Setaria viridis; details: pre-emergence, dosage 320 g/ha, scored visually after 3 weeks vs untreated controls
Outline: as §1

ECHCG [5] = assay: Pre-emergence action against ECHCG; format: in vivo, Echinochloa crus-galli; details: pre-emergence, dosage 320 g/ha, scored visually after 3 weeks vs untreated controls
Outline: as §1

MATIN [6] = assay: Pre-emergence action against MATIN; format: in vivo, Matricaria inodora; details: Dosage 320 g/ha, pre-emergence
Outline: as §1

VIOTR [7] = assay: Post-emergence action against VIOTR; format: in vivo, Viola tricolor; details: post-emergence, dosage 80 g/ha
Outline: as §2

VIOTR [8] = assay: Pre-emergence action against VIOTR; format: in vivo, Viola tricolor; details: Dosage 320 g/ha, pre-emergence
Outline: as §1

POLCO [9] = assay: Post-emergence action against POLCO; format: in vivo, Polygonum convolvulus; details: post-emergence, dosage 80 g/ha
Outline: as §2

AVEFA [10] = assay: Post-emergence action against AVEFA; format: in vivo, Avena fatua; details: post-emergence, dosage 80 g/ha, visual assessment about 3 weeks after treatment vs untreated controls
Outline: as §2

ABUTH [11] = assay: Post-emergence action against ABUTH; format: in vivo, Abutilon theophrasti; details: post-emergence, dosage 80 g/ha, visual assessment about 3 weeks after treatment vs untreated controls
Outline: as §2

CYPES [12] = assay: Pre-emergence action against CYPES; format: in vivo, Cyperus esculentus; details: pre-emergence, dosage 320 g/ha, scored visually after 3 weeks vs untreated controls
Outline: as §1

ABUTH [13] = assay: Pre-emergence action against ABUTH; format: in vivo, Abutilon theophrasti; details: pre-emergence, dosage 320 g/ha, scored visually after 3 weeks vs untreated controls
Outline: as §1

VERPE [14] = assay: Pre-emergence action against VERPE; format: in vivo, Veronica persica; details: Dosage 320 g/ha, pre-emergence
Outline: as §1

LOLMU [15] = assay: Pre-emergence action against LOLMU; format: in vivo, Lolium multiflorum; details: dosage 320 g/ha, scored visually after 3 weeks vs untreated controls
Outline: as §1

POLCO [16] = assay: Pre-emergence action against POLCO; format: in vivo, Polygonum convolvulus; details: Fallopia convolvulus, 504 h; Dosage 320 g/ha, pre-emergence
Outline: as §1

VERPE [17] = assay: Post-emergence action against VERPE; format: in vivo, Veronica persica; details: dosage 80 g/ha
Outline: as §2

ALOMY [18] = assay: Post-emergence action against ALOMY; format: in vivo, Alopecurus myosuroides; details: Dosage 80 g/ha, post-emergence
Outline: as §2

STEME [19] = assay: Post-emergence action against STEME; format: in vivo, Stellaria media; details: post-emergence, dosage 80 g/ha
Outline: as §2

ALOMY [20] = assay: Pre-emergence action against ALOMY; format: in vivo, Alopecurus myosuroides; details: dosage 320 g/ha, pre-emergence, scored visually after 3 weeks vs untreated controls, 100% = plants have died, 0% = like control plants
Outline: as §1

SETVI [21] = assay: Post-emergence action against SETVI; format: in vivo, Setaria viridis; details: post-emergence, dosage 80 g/ha, visual assessment about 3 weeks after treatment vs untreated controls
Outline: as §2

LOLMU [22] = assay: Post-emergence action against LOLMU; format: in vivo, Lolium multiflorum; details: dosage 80 g/ha, visual assessment about 3 weeks after treatment vs untreated controls
Outline: as §2

CYPES [23] = assay: Post-emergence action against CYPES; format: in vivo, Cyperus esculentus; details: post-emergence, dosage 80 g/ha, visual assessment about 3 weeks after treatment vs untreated controls
Outline: as §2

AMARE [24] = assay: Pre-emergence action against AMARE; format: in vivo, Amaranthus retroflexus; details: pre-emergence, dosage 320 g/ha, scored visually after 3 weeks vs untreated controls
Outline: as §1

STEME [25] = assay: Pre-emergence action against STEME; format: in vivo, Stellaria media; details: Dosage 320 g/ha, pre-emergence
Outline: as §1

PHBPU [26] = assay: Post-emergence action against PHBPU; format: in vivo, Pharbitis purpurea; details: post-emergence, dosage 80 g/ha
Outline: as §2

PHBPU [27] = assay: Pre-emergence action against PHBPU; format: in vivo, Pharbitis purpurea; details: Dosage 320 g/ha, pre-emergence
Outline: as §1

AMARE [28] = assay: Post-emergence action against AMARE; format: in vivo, Amaranthus retroflexus; details: post-emergence, dosage 80 g/ha, visual assessment about 3 weeks after treatment vs untreated controls
Outline: as §2

CC(=O)c1c(Cl)ccc(C(=O)Nc2nnnn2C)c1Cl [1-114]
90%: pest or weed control at 80 g/ha (ECHCG [3]; Echinochloa crus-galli, 504 h, read-out: Post-emergence action against ECHCG (herbicidal action in percent)) | pest or weed control at 80 g/ha (VIOTR [7]; Viola tricolor, 504 h) | pest or weed control at 80 g/ha (POLCO [9]; Fallopia convolvulus, 504 h) | pest or weed control at 80 g/ha (AVEFA [10]; Avena fatua, 504 h, read-out: Post-emergence action against AVEFA (herbicidal action in percent)) | pest or weed control at 320 g/ha (POLCO [16]) | pest or weed control at 320 g/ha (ALOMY [20]; Alopecurus myosuroides, 504 h, read-out: Pre-emergence action against ALOMY (herbicidal activity in percent)) | pest or weed control at 320 g/ha (STEME [25]; Stellaria media, 504 h) | pest or weed control at 80 g/ha (PHBPU [26]; Ipomoea purpurea, 504 h)
80%: pest or weed control at 80 g/ha (MATIN [2]; Tripleurospermum inodorum, 504 h, read-out: Post-emergence action against MATIN (herbicidal action in percent)) | pest or weed control at 80 g/ha (ABUTH [11]; Abutilon theophrasti, 504 h, read-out: Post-emergence action against ABUTH (herbicidal action in percent)) | pest or weed control at 80 g/ha (ALOMY [18]; Alopecurus myosuroides, 504 h) | pest or weed control at 80 g/ha (SETVI [21]; Setaria viridis, 504 h, read-out: Post-emergence action against SETVI (herbicidal action in percent)) | pest or weed control at 80 g/ha (CYPES [23]; Cyperus esculentus, 504 h, read-out: Post-emergence action against CYPES (herbicidal action in percent))
100%: pest or weed control at 320 g/ha (AVEFA [1]; Avena fatua, 504 h, read-out: Pre-emergence action against AVEFA (herbicidal activity)) | pest or weed control at 320 g/ha (SETVI [4]; Setaria viridis, 504 h, read-out: SETVI (Table B8, pre-emergence herbicidal activity)) | pest or weed control at 320 g/ha (ECHCG [5]; Echinochloa crus-galli, 504 h, read-out: Pre-emergence action against ECHCG (herbicidal activity)) | pest or weed control at 320 g/ha (MATIN [6]; Tripleurospermum inodorum, 504 h) | pest or weed control at 320 g/ha (VIOTR [8]; Viola tricolor, 504 h) | pest or weed control at 320 g/ha (CYPES [12]; Cyperus esculentus, 504 h, read-out: Pre-emergence action against CYPES (herbicidal activity)) | pest or weed control at 320 g/ha (ABUTH [13]; Abutilon theophrasti, 504 h, read-out: Pre-emergence action against ABUTH (herbicidal activity)) | pest or weed control at 320 g/ha (VERPE [14]; Veronica persica, 504 h) | pest or weed control at 320 g/ha (LOLMU [15]; Lolium multiflorum, 504 h, read-out: Pre-emergence action against LOLMU (herbicidal activity)) | pest or weed control at 80 g/ha (VERPE [17]; Veronica persica, 504 h) | pest or weed control at 80 g/ha (STEME [19]; Stellaria media, 504 h) | pest or weed control at 80 g/ha (LOLMU [22]; Lolium multiflorum, 504 h, read-out: Post-emergence action against LOLMU (herbicidal action in percent)) | pest or weed control at 320 g/ha (AMARE [24]; Amaranthus retroflexus, 504 h, read-out: Pre-emergence action against AMARE (herbicidal activity))

CCC(=O)c1c(C(F)(F)F)ccc(C(=O)Nc2nnnn2CC)c1C [2-15]
80%: Post-emergence action against AVEFA (herbicidal action in percent) (AVEFA [10]) | Pre-emergence action against PHBPU (PHBPU [27])
90: Post-emergence action against VERPE (VERPE [17])
100: Post-emergence action against VIOTR (VIOTR [7]) | Post-emergence action against POLCO (POLCO [9]) | Post-emergence action against STEME (STEME [19])
80: Post-emergence action against PHBPU (PHBPU [26])
90%: Post-emergence action against MATIN (herbicidal action in percent) (MATIN [2]) | Post-emergence action against ECHCG (herbicidal action in percent) (ECHCG [3]) | Pre-emergence action against CYPES (herbicidal activity) (CYPES [12]) | Post-emergence action against AMARE (herbicidal action in percent) (AMARE [28]) | Post-emergence action against LOLMU (herbicidal action in percent) (LOLMU [22]) | Post-emergence action against CYPES (herbicidal action in percent) (CYPES [23])
100%: Pre-emergence action against AVEFA (herbicidal activity) (AVEFA [1]) | SETVI (Table B8, pre-emergence herbicidal activity) (SETVI [4]) | Pre-emergence action against ECHCG (herbicidal activity) (ECHCG [5]) | Pre-emergence action against MATIN (MATIN [6]) | Pre-emergence action against VIOTR (VIOTR [8]) | Post-emergence action against ABUTH (herbicidal action in percent) (ABUTH [11]) | Pre-emergence action against ABUTH (herbicidal activity) (ABUTH [13]) | Pre-emergence action against VERPE (VERPE [14]) | Pre-emergence action against LOLMU (herbicidal activity) (LOLMU [15]) | Post-emergence action against ALOMY (ALOMY [18]) | Pre-emergence action against ALOMY (herbicidal activity in percent) (ALOMY [20]) | Post-emergence action against SETVI (herbicidal action in percent) (SETVI [21]) | Pre-emergence action against AMARE (herbicidal activity) (AMARE [24]) | Pre-emergence action against STEME (STEME [25])

CCn1nnnc1NC(=O)c1ccc(S(C)(=O)=O)c(C(=O)C2CC2)c1Cl [2-129]
90%: Post-emergence action against ECHCG (herbicidal action in percent) (ECHCG [3]) | Pre-emergence action against LOLMU (herbicidal activity) (LOLMU [15]) | Pre-emergence action against ALOMY (herbicidal activity in percent) (ALOMY [20]) | Post-emergence action against LOLMU (herbicidal action in percent) (LOLMU [22])
80%: Post-emergence action against ABUTH (herbicidal action in percent) (ABUTH [11]) | Post-emergence action against CYPES (herbicidal action in percent) (CYPES [23])
100%: Pre-emergence action against AVEFA (herbicidal activity) (AVEFA [1]) | Post-emergence action against MATIN (herbicidal action in percent) (MATIN [2]) | SETVI (Table B8, pre-emergence herbicidal activity) (SETVI [4]) | Pre-emergence action against ECHCG (herbicidal activity) (ECHCG [5]) | Pre-emergence action against MATIN (MATIN [6]) | Pre-emergence action against VIOTR (VIOTR [8]) | Post-emergence action against AVEFA (herbicidal action in percent) (AVEFA [10]) | Pre-emergence action against CYPES (herbicidal activity) (CYPES [12]) | Pre-emergence action against ABUTH (herbicidal activity) (ABUTH [13]) | Pre-emergence action against VERPE (VERPE [14]) | Post-emergence action against AMARE (herbicidal action in percent) (AMARE [28]) | Post-emergence action against ALOMY (ALOMY [18]) | Post-emergence action against SETVI (herbicidal action in percent) (SETVI [21]) | Pre-emergence action against AMARE (herbicidal activity) (AMARE [24]) | Pre-emergence action against STEME (STEME [25])
100: Post-emergence action against VIOTR (VIOTR [7]) | Post-emergence action against POLCO (POLCO [9]) | Post-emergence action against VERPE (VERPE [17]) | Post-emergence action against STEME (STEME [19]) | Post-emergence action against PHBPU (PHBPU [26])
